The values below come from patent US4387100A, “Substituted phenoxy-aminopropanol derivatives” (Hoffmann-La Roche Inc., priority 1980, dated 1983).

Structures are written as SMILES. Read-outs that look alike come from different tables or passages of the source.

In one experiment the target is T1, β2-adrenoceptors (Rattus norvegicus, UniProt P10608).
T1 construct: this activity is measured in rats by determining the dosage; from tissue; host or cells: living rat, i.v. dosing; read-out blood pressure (isoprenaline-induced depressor response)
As to the kind of experiment: 50% reduction in isoprenaline-induced depressor responses (β2-blocking activity) in rats, i.v. As to conditions: iv, dosage for 50% reduction in isoprenaline-induced depressor responses. It is filed as in vivo.

A further experiment deals with T2, β1-adrenoceptors (Rattus norvegicus, UniProt P18090).
T2 construct: this activity is measured in rats by determining the dosage; from tissue; host or cells: living rat, i.v. dosing; read-out heart rate (isoprenaline-induced tachycardia)
As to the kind of experiment: 50% reduction in isoprenaline-induced tachycardia (β1-blocking activity) in rats, i.v. The experiment is classed as in vivo. The conditions noted are these: iv, read-out: ED50 (HR).

The mark [1] stands for this setting: rats, i.v., dosage for 50% reduction in isoprenaline-induced tachycardia.

T2 sequence (P18090 whole entry): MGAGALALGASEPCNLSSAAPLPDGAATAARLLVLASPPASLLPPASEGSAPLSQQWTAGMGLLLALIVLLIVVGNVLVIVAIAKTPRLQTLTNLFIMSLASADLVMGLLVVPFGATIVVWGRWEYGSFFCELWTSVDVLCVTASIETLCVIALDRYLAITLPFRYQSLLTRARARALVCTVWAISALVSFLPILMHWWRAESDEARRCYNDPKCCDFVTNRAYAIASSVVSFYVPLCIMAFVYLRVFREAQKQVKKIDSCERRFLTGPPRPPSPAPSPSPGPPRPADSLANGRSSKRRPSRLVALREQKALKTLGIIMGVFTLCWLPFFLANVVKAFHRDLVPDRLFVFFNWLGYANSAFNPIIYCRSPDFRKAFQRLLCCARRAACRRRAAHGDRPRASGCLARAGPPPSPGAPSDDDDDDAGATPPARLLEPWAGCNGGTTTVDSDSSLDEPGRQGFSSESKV
T1 sequence (P10608 whole entry): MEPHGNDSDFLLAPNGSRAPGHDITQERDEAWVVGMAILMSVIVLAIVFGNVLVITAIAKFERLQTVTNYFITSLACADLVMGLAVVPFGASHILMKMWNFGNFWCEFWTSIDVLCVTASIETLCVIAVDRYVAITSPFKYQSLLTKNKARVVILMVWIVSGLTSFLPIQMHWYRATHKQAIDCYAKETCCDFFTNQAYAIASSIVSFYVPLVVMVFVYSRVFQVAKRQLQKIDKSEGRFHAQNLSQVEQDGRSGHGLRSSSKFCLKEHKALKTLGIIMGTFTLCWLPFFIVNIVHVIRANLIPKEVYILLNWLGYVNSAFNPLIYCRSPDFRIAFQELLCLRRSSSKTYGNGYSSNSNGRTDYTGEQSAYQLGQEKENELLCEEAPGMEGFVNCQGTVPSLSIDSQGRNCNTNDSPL

The term ED50 denotes the dose at which the effect has come halfway, by size or by number of responders. In the case of `CC(C)NCC(O)COc1ccc(OCCn2cccn2)cc1` (stereo not drawn) [A], the ED50 on β2-adrenoceptors worked out at 6.5 mg/kg; on β1-adrenoceptors (setting [1]), 0.05 mg/kg.

As for `CC(C)NCC(O)COc1ccc(CC(N)=O)cc1` (stereo not drawn) [Atenolol, atenolol, reference compound], on β1-adrenoceptors, the median effective dose (ED50) turned out to be 0.091 mg/kg. Consider `CC(C)NCC(O)COc1ccc(OCn2cc(Cl)cn2)cc1` (stereo not drawn) [B], for which the figures for the 50% effective dose (ED50) on β2-adrenoceptors and at β1-adrenoceptors (setting [1]) were 2.43 mg/kg and 0.004 mg/kg, respectively. The corresponding values for `CC(C)NCC(O)COc1ccc(OCn2nccn2)cc1` (stereo not drawn) [C] are greater than 2 mg/kg and 0.011 mg/kg. On to `CC(C)NCC(O)COc1ccc(OCCn2nccn2)cc1` (stereo not drawn) [D], for which the ED50 on β2-adrenoceptors is greater than 2 mg/kg; on β1-adrenoceptors (setting [1]) it was 0.014 mg/kg.
